Drawing on patent EP4559911A1, “NOVEL HETEROCYCLIC COMPOUND AND PHARMACEUTICAL COMPOSITION FOR INHIBITING AUTOTAXIN COMPRISING THE SAME” (Nextgen Bioscience Co., Ltd., priority 2022, dated 2024), this text covers inhibition for 15 molecules.

This experiment addresses human Autotaxin protein (Homo sapiens, UniProt Q13822). The experiment is described as follows: Evaluation of the inhibitory activity against human Autotaxin protein (18:1 LysoPC substrate, choline assay kit, absorbance at 570 nm). It counts as biochemical. The note with it: compound at 500nM; 2 hours at 37 °C; % inhibition = (1 - absorbance test group / absorbance control group) X 100. Put shortly: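 Human autotaxin (20 μL of 240 nM stock) was reacted with sonicated 18:1 LysoPC (10 μL of 360 μM stock) in Tris pH 8.0 buffer with BSA for 2 h at 37 °C, using 6 compound concentrations from 5-fold dilution. Released choline was detected via choline oxidase/dye probe (30 min), read as absorbance at 570 nm. % inhibition was calculated relative to control.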
Take `Fc1cc2c(cc1F)CC(Nc1ncc(-c3nnc(N4CC(n5cncn5)C4)o3)cn1)C2` [Example 79, 5-(5-(3-(1H-1,2,4-triazol-1-yl)azetidin-1-yl)-1,3,4-oxadiazol-2-yl)-N-(5,6-difluoro-2,3-dihydro-1H-inden-2-yl)pyrimidin-2-amine]: 0.5 µM produced 24.7% inhibition.

`Fc1cc2c(cc1F)CC(Nc1ncc(-c3nnc(N4CCC(c5c[nH]cn5)C4)o3)cn1)C2` (stereo not drawn) [Example 38, 5-(5-(3-(1H-imidazol-4-yl)pyrrolidin-1-yl)-1,3,4-oxadiazol-2-yl)-N-(5,6-difluoro-2,3-dihydro-1H-inden-2-yl)pyrimidin-2-amine] gave an inhibition at 0.5 µM of 55%.

On to `Fc1cc2c(cc1F)CC(Nc1ncc(-c3nnc(N4CC(c5nnn[nH]5)C4)o3)cn1)C2` [Example 68, 5-(5-(3-(1H-tetrazol-5-yl)azetidin-1-yl)-1,3,4-oxadiazol-2-yl)-N-(5,6-difluoro-2,3-dihydro-1H-inden-2-yl)pyrimidin-2-amine], for which the inhibition at 0.5 µM worked out at 17.6%.

With `Fc1cc(F)cc(CNc2ncc(-c3nnc(N4CC(c5c[nH]nn5)C4)o3)cn2)c1` [Example 48, 5-(5-(3-(1H-1,2,3-triazol-4-yl)azetidin-1-yl)-1,3,4-oxadiazol-2-yl)-N-(3,5-difluorobenzyl)pyrimidin-2-amine], testing at 0.5 µM gave an inhibition of 39.2%.

Regarding `CC1(c2c[nH]nn2)CCN(c2nnc(-c3cnc(NCCc4cc(Cl)cc(Cl)c4)nc3)o2)C1` (stereo not drawn) [Example 32, N-(3,5-dichlorophenethyl)-5-(5-(3-methyl-3-(1H-1,2,3-triazol-4-yl)pyrrolidin-1-yl)-1,3,4-oxadiazol-2-yl)pyrimidin-2-amine], the inhibition at 0.5 µM came to 21.9%.

`O=C(/C=C/c1cnc(NC2Cc3cc(F)c(F)cc3C2)nc1)N1CC(c2c[nH]nn2)C1` [Example 40, (E)-1-(3-(1H-1,2,3-triazol-4-yl)azetidin-1-yl)-3-(2-((5,6-difluoro-2,3-dihydro-1H-inden-2-yl)amino)pyrimidin-5-yl)prop-2-en-1-one] had an inhibition at 0.5 µM of 98.6%.

With `c1cnc2c(c1)CC(Nc1ncc(-c3nnc(N4CCC(c5c[nH]nn5)C4)o3)cn1)C2` (stereo not drawn) [Example 8, N-(5-(5-(3-(1H-1,2,3-triazol-4-yl)pyrrolidin-1-yl)-1,3,4-oxadiazol-2-yl)pyrimidin-2-yl)-6,7-dihydro-5H-cyclopenta[b]pyridin-6-amine], the inhibition at 0.5 µM was 49.5%.

On to `O=C(O)C1CCN(c2nnc(-c3cnc(NC4Cc5cc(F)c(F)cc5C4)nc3)o2)C1` (stereo not drawn) [Example 22, 1-(5-(2-((5,6-difluoro-2,3-dihydro-1H-inden-2-yl)amino)pyrimidin-5-yl)-1,3,4-oxadiazol-2-yl)pyrrolidine-3-carboxylic acid], for which the inhibition at 0.5 µM is 3.6%.

Turning to `CC(C)(C)C(=O)OCn1cc(C2CN(c3nnc(-c4cnc(NC5Cc6nccnc6C5)nc4)o3)C2)nn1` [Example 72, (4-(1-(5-(2-((6,7-dihydro-5H-cyclopenta[b]pyrazin-6-yl)amino)pyrimidin-5-yl)-1,3,4-oxadiazol-2-yl)azetidin-3-yl)-1H-1,2,3-triazol-1-yl)methyl pivalate], the inhibition at 0.5 µM was determined as 3.1%.

With `Fc1cc2c(cc1F)CC(Nc1ccc(-c3nnc(N4CC(c5c[nH]nn5)C4)o3)cn1)C2` [Example 54, 5-(5-(3-(1H-1,2,3-triazol-4-yl)azetidin-1-yl)-1,3,4-oxadiazol-2-yl)-N-(5,6-difluoro-2,3-dihydro-1H-inden-2-yl)pyridin-2-amine], at 0.5 µM the inhibition was 23.4%.

On to `Clc1ccc(CCNc2ncc(-c3nnc(N4CC(c5c[nH]nn5)C4)o3)cn2)cc1` [Example 93, 5-(5-(3-(1H-1,2,3-triazol-4-yl)azetidin-1-yl)-1,3,4-oxadiazol-2-yl)-N-(4-chlorophenethyl)pyrimidin-2-amine], for which the inhibition at 0.5 µM was found to be 89.3%.

As for `N#CC1CN(c2nnc(-c3cnc(NC4Cc5cc(F)c(F)cc5C4)nc3)o2)C1` [Example 57, 1-(5-(2-((5,6-difluoro-2,3-dihydro-1H-inden-2-yl)amino)pyrimidin-5-yl)-1,3,4-oxadiazol-2-yl)azetidine-3-carbonitrile], the inhibition at 0.5 µM worked out at 8.6%.

`O=C(CCc1cnc(NC2Cc3cc(F)c(F)cc3C2)nc1)N1CC(c2c[nH]nn2)C1` [Example 44, 1-(3-(1H-1,2,3-triazol-4-yl)azetidin-1-yl)-3-(2-((5,6-difluoro-2,3-dihydro-1H-inden-2-yl)amino)pyrimidin-5-yl)propan-1-one] yielded an inhibition at 0.5 µM of 51.5%.

`O=C(/C=C/c1cnc(NC2Cc3ccccc3C2)nc1)N1CCC(c2c[nH]nn2)C1` (stereo not drawn) [Example 20, (E)-1-(3-(1H-1,2,3-triazol-4-yl)pyrrolidin-1-yl)-3-(2-((2,3-dihydro-1H-inden-2-yl)amino)pyrimidin-5-yl)prop-2-en-1-one] returned an inhibition at 0.5 µM of 92.4%.

Take `Fc1cc2c(cc1F)CC(Nc1ncc(-c3nnc(N4CC(c5c[nH]nn5)C4)o3)cn1)C2` [Example 39, 5-(5-(3-(1H-1,2,3-triazol-4-yl)azetidin-1-yl)-1,3,4-oxadiazol-2-yl)-N-(5,6-difluoro-2,3-dihydro-1H-inden-2-yl)pyrimidin-2-amine]: the inhibition at 0.5 µM stood at 98%.

One may read the inhibition as the percentage by which the read-out fell short of the control.
